Common to all, as to format: cell-based
In test [1] the test system is NIH/3T3 cells. The test is described as follows: Cell proliferation assay (MTS), NIH/3T3. The conditions noted are these: Mus musculus, NIH3T3. Here is the method: (§1) Cells were plated at 3×10^4 cells/mL, A549 and HeLa, and 1×10^4 cells/mL, NIH/3T3, in 96-well plates and incubated for 24 h to allow for cell adhesion. LSF-library compounds were dissolved in DMSO, serial diluted in appropriate medium and added to cells in triplicate (2 plates). DMSO was added to control wells at a final concentration of 1%. After 72 h incubation in the presence of compound, confluent cells were assayed for growth proliferation with CellTiter 96® AQueous One Solution Cell Proliferation Assay (MTS) (Promega) according to the manufacturer's protocol. Plates were read at 490 nm on a microplate reader, and IC50 values were determined as the percentage of compound-treated cell growth to control cell growth. HCC cells—one hour after plating HCC cells onto 96-well plates, compound or vehicle (DMSO) was added to the desired concentrations, keeping DMSO at 0.5%. At indicated time points, cell viability was assayed using the CellTiter 96® Non-Radioactive Cell Proliferation Assay (MTT) (Promega).
(§2) QGY-7703 and A549 cells were cultured at 37° C. in 5% CO2 in DMEM (Dulbecco's modification of Eagle's Medium; Corning) supplemented with 10% Fetal Bovine Serum (FBS; Invitrogen). NIH-3T3 cells were cultured at 37° C. in 5% CO2 in DMEM supplemented with 10% Fetal Calf Serum (FCS; Atlanta Biologicals). For cell viability assays, 1,500 cells were seeded in 96-well plates and treated with FQI-34 or vehicle (DMSO) at appropriate concentrations (DMSO at 1%) after 20 hours. After 72-hour incubation with compound or vehicle, cell growth was assessed via the Promega CellTiter 96® AQueous One Solution Cell Proliferation Assay, a colorimetric method to determine the number of viable cells. 20 μL of the CellTiter 96® AQueous One Solution Reagent was added directly into cultured wells and incubated for one hour, after which the absorbance at 490 nm was read with a 96-well plate reader (Opys MR Microplate Reader). The CellTiter 96® AQueous One Solution contains an MTS tetrazolium compound which is bioreduced by cells into a colored formazan product that is soluble in tissue culture medium. The quantity of formazan product as measured by absorbance is directly proportional to the number of living cells in culture. GI50 values were determined from plots of the percentage of compound-treated cell growth to vehicle cell growth vs. compound concentration (GraphPad Prism; non-linear regression 4-parameter curve fit with variable slope).

Test [2] deals with A549 cells. The test is described as follows: Cell proliferation assay (MTS), A549. The note with it: for GI50: MTS. Here is the method: as §1, §2
Test [3] has as its target T1, LSF (Homo sapiens, UniProt Q12800).
T1 sequence (Q12800 1-502): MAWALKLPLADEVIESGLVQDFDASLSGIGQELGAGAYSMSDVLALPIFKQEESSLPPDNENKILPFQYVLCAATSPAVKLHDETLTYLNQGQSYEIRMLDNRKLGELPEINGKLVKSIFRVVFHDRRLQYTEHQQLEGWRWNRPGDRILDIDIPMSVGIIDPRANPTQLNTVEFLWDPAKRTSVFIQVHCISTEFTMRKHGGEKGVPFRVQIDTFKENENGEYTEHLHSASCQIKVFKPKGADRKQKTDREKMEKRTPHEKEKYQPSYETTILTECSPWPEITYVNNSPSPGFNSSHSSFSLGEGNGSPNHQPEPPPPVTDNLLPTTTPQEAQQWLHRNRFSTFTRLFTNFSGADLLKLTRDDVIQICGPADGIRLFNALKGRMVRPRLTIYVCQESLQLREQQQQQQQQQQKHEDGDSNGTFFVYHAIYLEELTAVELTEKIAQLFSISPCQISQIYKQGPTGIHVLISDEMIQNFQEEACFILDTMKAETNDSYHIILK
The test is described as follows: LSF-dependent luciferase reporter assay in NIH 3T3 cells. Set-up: expressed in transfected cells; host or cells: NIH 3T3. On the procedure: NIH 3T3 cells were transfected with the expression construct pEF1α-LSF, a LSF expression vector^6,20; the reporter construct pGL3B-WT4E1b, a firefly luciferase reporter vector driven by LSF^12; phRL-TK, a control renilla luciferase reporter vector; and pEFGP, essentially as previously described^12. Five hours after transfection, either vehicle (DMSO) or FQI compound was added, keeping DMSO at 0.5%. Cell extracts were harvested 36 hours post-transfection and firefly and renilla luciferase activities measured via a dual luciferase assay (Promega). Five μl of extract was mixed with 30 μl of luciferase assay reagent (Promega), and luminescence measured for 10 seconds using a 20/20n luminometer (Turner Biosystems). Subsequently, 30 μl of Stop & Glo reagent (Promega) was added, and luminescence also measured for 10 seconds. LSF transactivation activity is given as relative luciferase activity, the ratio of firefly to renilla activities.
NIH-3T3 cells were cultured at 37° C. in 5% CO2 in DMEM (Dulbecco's modification of Eagle's Medium; Corning) supplemented with 10% FCS (FCS; Atlanta Biologicals). Approximately 24 hours prior to transfection, 200,000 cells were plated in 35 mm dishes. After 24 hours, cells were ˜70% confluent, and were transfected for 5 hours with pEF1α-LSF, the reporter construct pGL3B-WT4E1b, phRLTK, and pEFGP (Grant, T. J. et al. Antiproliferative small-molecule inhibitors of transcription factor LSF reveal oncogene addiction to LSF in hepatocellular carcinoma. PNAS (2012), 109, 1-6). Vehicle (DMSO) or FQI-34 was then added, keeping the DMSO at 0.5%. Cell extracts were harvested 36 h post-transfection, and firefly and renilla luciferase activities were measured via a dual luciferase assay (Promega Dual-Luciferase Reporter Assay System). Relative luciferase activity represents firefly luciferase activity normalized to that of renilla luciferase in each extract. IC50 values were determined from plots of normalized luciferase activity vs. compound concentration (Prism GraphPad; non-linear regression 4-parameter curve fit with variable slope).
For orientation: A reporter such as luciferase makes a cellular process visible.

Test [4] concerns QGY-7703 cells. The test is described as follows: TUNEL apoptosis assay, QGY-7703. The conditions noted are these: QGY-7703, 10 μM. Here is the method: HCC cells were plated 24 h prior to incubation with FQI1. At the indicated time points, cells were analyzed using the FragEL™ DNA fragmentation kit (Calbiochem) according to the manufacturer's protocol. Flow cytometry was performed using a FACS caliber (Becton Dickinson) and analyzed with Cell Quest software.

The test system of test [5] is cancer cell lines. The test is described as follows: Inhibition of growth of cancer cell lines in vitro (FIGS. 9 and 10). The conditions noted are these: 0.2-33 μM. Here is the method:
FIG. 9A-9K show the results of inhibition of growth of cancer cell lines in vitro by FQI1 (Formula (IV)). The effect of inhibition of cell growth (represented as a fraction of 1) of increasing concentrations of FQI1 between 0.2-33 μM is shown.
The effect of inhibition of cell growth (represented as a fraction of 1) of increasing concentrations of FQI2 between 0.2-33 μM is shown.

Structures are written as SMILES. Where “and” joins values, the source holds several entries; their conditions need not be identical. Equal values may be shown once. Read-outs that look alike come from different tables or passages of the source.

On to `CCOc1cc(N(C)C)ccc1C1CC(=O)Nc2cc3c(cc21)OCO3` (stereo not shown) [FQI-34, 8-(4-(dimethylamino)-2-ethoxyphenyl)-7,8-dihydro-[1,3]dioxolo[4,5-g]quinolin-6(5H)-one], for which the GI50 worked out at 1.49 µM in test [1] (1,500 cells seeded, 72-hour incubation, MTS, read-out: GI50 in NIH-3T3 cells) and 1.8 µM in test [2] (Homo sapiens, 1,500 cells seeded, 72-hour incubation, read-out: GI50 in A549 cells). Also, the IC50 in test [3] (Table 5, read-out: LSF-reporter assay IC50) stood at 0.726 µM; in test [3] (Table 8, read-out: LSF-reporter assay IC50), 0.726 µM; in test [3] (dual-luciferase reporter, NIH-3T3, FIG. 12, read-out: LSF-Target affinity IC50) it was 0.59 µM.
`CCOc1ccccc1C1CC(=O)Nc2cc3c(cc21)OCO3` (racemic) [FQI1, 8-(2-ethoxyphenyl)-7,8-dihydro-[1,3]dioxolo[4,5-g]quinolin-6(5H)-one]: the GI50 in test [1] (72 h, MTS, read-out: GI50 (μM) NIH/3T3) amounted to 3 µM; in test [1] (Table 3, read-out: GI50 (μM) NIH 3T3) it was 3 ± 0.9 µM; in test [2] (Homo sapiens, 72 h, read-out: GI50 (μM) A549), 6.3 µM. Further, the IC50 in test [1] (Example 7, FIG. 8, read-out: growth inhibition of NIH/3T3 Cell Line IC50) is 3000 ± 850 nM; in test [2] (Homo sapiens, Example 7, FIG. 8, read-out: growth inhibition of A549 Cell Line IC50), 6300 ± 1100 nM; in test [3] (NIH 3T3 cells, dual luciferase, ranges where few concentrations tested, read-out: IC50 (μM) LSF-dependent reporter assat NIH 3T3), ~2.4 µM and 2.4 µM. Further, in test [4], the “apoptosis in flow cytometric TUNEL assay” value is recorded as 90%. Besides, the “growth of a variety of cancers, in vitro cell assay” value in test [5] is given as “inhibit the growth of a variety of cancers”.

The values above are taken from US10392398B2, “Inhibitors of Late SV40 Factor (LSF) as cancer chemotherapeutics” (TRUSTEES OF BOSTON UNIVERSITY, priority 2010, dated 2019).
